Results taken from patent US20220133701A1, “METHODS OF TREATING PAIN” (Yeda Research and Development Co. Ltd., priority 2019, published 2022).
Entries after “also recorded” stand apart in the source; their conditions may differ.

T1: importin α3 (endogenous, mouse DRG sensory neurons) (mouse, UniProt O35343 2-521)
T1 construct: whole, on cells; Endogenous protein detected in fixed neurons with a rabbit polyclonal anti-importin α3 antibody in the proximity ligation assay; The protein is intracellular, not on the cell surface; also called Impα3; Karyopherin Subunit Alpha 4
T1 sequence (looked up): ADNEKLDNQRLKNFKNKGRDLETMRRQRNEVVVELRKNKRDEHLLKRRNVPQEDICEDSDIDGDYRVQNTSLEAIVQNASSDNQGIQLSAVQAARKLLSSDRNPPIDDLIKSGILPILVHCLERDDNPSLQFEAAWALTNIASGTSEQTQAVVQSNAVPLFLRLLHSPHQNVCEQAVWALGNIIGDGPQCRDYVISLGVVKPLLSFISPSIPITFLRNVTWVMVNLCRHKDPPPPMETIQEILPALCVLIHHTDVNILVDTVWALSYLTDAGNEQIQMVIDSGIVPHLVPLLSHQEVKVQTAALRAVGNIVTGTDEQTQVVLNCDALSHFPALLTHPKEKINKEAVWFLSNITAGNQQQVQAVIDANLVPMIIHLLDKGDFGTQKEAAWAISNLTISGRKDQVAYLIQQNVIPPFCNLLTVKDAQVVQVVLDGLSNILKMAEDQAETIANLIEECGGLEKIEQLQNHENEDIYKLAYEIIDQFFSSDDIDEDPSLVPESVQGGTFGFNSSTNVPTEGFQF

B1: c-Fos (other, mouse, UniProt P01101 1-380, looked up)
chain: MMFSGFNADYEASSSRCSSASPAGDSLSYYHSPADSFSSMGSPVNTQDFCADLSVSSANFIPTVTAISTSPDLQWLVQPTLVSSVAPSQTRAPHPYGLPTQSAGAYARAGMVKTVSGGRAQSIGRRGKVEQLSPEEEEKRRIRRERNKMAAAKCRNRRRELTDTLQAETDQLEDEKSALQTEIANLLKEKEKLEFILAAHRPACKIPDDLGFPEEMSVASLDLTGGLPEASTPESEEAFTLPLLNDPEPKPSLEPVKSISNVELKAEPFDDFLFPASSRPSGSETSRSVPDVDLSGSFYAADWEPLHSNSLGMGPMVTELEPLCTPVVTCTPGCTTYTSSFVFTYPEADSFPSCAAAHRKGSSSNEPSSDSLSSPTLLAL
notes: whole, on cells; Endogenous protein in both assays; The protein is intracellular, not on the cell surface
B2: shFOS1: AAV9 shRNA targeting c-Fos, SEQ ID NO: 17 (nucleic acid)
DNA: GATCCGGCGGAGACAGATCAACTTGAAGAAGCTTGTTCAAGTTGATCTGTCTCCGCCTTTTTTT

What was measured:
mice = assay: Response to noxious heat (metal probe heated to 58° C. applied to paw, paw withdrawal latency); type: in vivo, mouse; details: for responsiveness to noxious heat: WT mice, 1 hour following i.p. injection, sulmazole 0.5 mg/kg, sulfamethizole 1.25 mg/kg (FIG. 8A)
Experimental: Pain Models—Responses to noxious heat were assessed by applying a metal probe heated to 58° C. to a forelimb paw, while holding the animal. Paw withdrawal latency was timed, typically ranging between 2-4 seconds in wild-type animals. If the paw was not withdrawn within 20 seconds the assay was terminated. The test was repeated three times for each animal, with at least 20 minute intervals between repeats. Heat sensitivity was also assessed using the hot plate test [L. Urien et al., Sci Rep 7, 43493 (2017)]. To this end, mice were placed individually in a 20 cm high Plexiglas box on a metal surface set at 52, 55 or 58° C., and the latency to initiate a nociceptive response (licking, hind paws shaking, jumping) was monitored by videotape. Mice were removed from the plate immediately after a nociceptive response.

SNI mice [1] = assay: Spared nerve injury (SNI) model of neuropathic pain, paw withdrawal threshold (PWT) by Von Frey test; type: in vivo, mouse; details: for paw withdrawal threshold (PWT) by the Von Frey test: SNI, 60 days following establishing the model, two i.p. injections with 1 week interval, sulmazole 1.25 mg/kg, sulfamethizole 3.12 mg/kg, vs vehicle (FIG. 8B); for relief in the SNI model of neuropathic pain: intraperitoneal injection at both early and late stages of chronic pain (FIGS. 8B, 21A-B, 22A-B); for mechanosensitivity, paw withdrawal threshold by Von Frey test, dose dependence: one hour following i.p. treatment, one week following establishing SNI (FIGS. 21A-B); for mechanosensitivity, Von Frey tests, time dependence: one week after SNI, 1, 5 and 24 hours following i.p. injection (FIGS. 22A-B)
Experimental: (§1) Chronic neuropathic pain was assessed using the spared nerve injury (SNI) model^13. Mice were anaesthetized with Ketamine/Xylazine (10 mg/kg body weight, intraperitoneal). The skin on the lateral surface of the thigh was incised and a section was made directly through the biceps femoris muscle in order to expose the sciatic nerve and its three terminal branches: the sural, common peroneal and tibial nerves. The SNI procedure comprised an axotomy and ligation of the tibial and common peroneal nerves leaving the sural nerve intact. The peroneal and the tibial nerves were tight-ligated and sectioned distal to the ligation. […] Following, mice were evaluated over a period of three months.
(§2) Von Frey tests of sensitivity to mechanical stimuli were conducted as previously described [Marvaldi et al. Dev Neurobiol 75, 217 (2015)]. Briefly, mice were placed in acrylic chambers suspended above a wire mesh grid and allowed to habituate to the testing apparatus for one hour prior to experiments. When the mouse was calm, the von Frey filaments were pressed against the plantar surface of the paw until the filament buckled and held for a maximum of 3 seconds. A positive response was noted if the paw was sharply withdrawn on application of the filament. Testing began with filament target force 13.7 milliNewtons and progressed according to an up-down method. 2 gram Von Frey filaments were used to assess sensitivity to noxious mechanical stimulation, scoring mice responses as follows: 0, no response; 1, visible signs of discomfort without leg withdrawal; 2, withdrawal of the leg.

SNI mice [2] = assay: Noxious mechanosensitivity of SNI mice, Von Frey filaments of 2 grams force, score 0-2; type: in vivo, mouse; details: score 0 to 2 (FIG. 22C)
Experimental: as §1
as §2, with “2 gram Von Frey filaments were used to assess sensitivity to noxious mechanical stimulation, scoring mice responses as follows: 0, no response; 1, visible signs of discomfort without leg withdrawal; 2, withdrawal of the leg.” left out

[3] = tested on: c-Fos nuclear localization in DRG neurons; assay: c-Fos nuclear localization in cultured DRG neurons (immunostaining, quantified); type: cell-based, mouse; details: sulmazole 0.5 mg/kg; for c-Fos nuclear accumulation: importin α3 null DRG neurons cultured following SNI, sulfamethizole 1.25 mg/kg (FIG. 9); for c-Fos nuclear localization: wild type DRG neurons cultured following SNI, sulfamethizole 1.25 mg/kg, vs vehicle (FIGS. 8C-D)
Experimental: Histology—Lumbar sections of the spinal cord including Dorsal root ganglia (DRGs) were pre-fixed for 6 minutes before dissection of spinal cord and associated DRGs. Lumbar DRG (L4, unless otherwise indicated) and/or spinal cord were then fixed for six hours in 4% PFA in PBS, washed in PBS and equilibrated in 20% w/v sucrose in PBS prior to serial cryo-sectioning at a thickness of 10-20 μm. Following, one set for each DRG was processed for immunostaining. Briefly, sections were rehydrated in PBS, blocked and permeabilized with 15% Donkey Serum, 5-10% BSA, 0.3% Triton X-100 in PBS for 1-3 hours and incubated overnight at 4° C. with Mouse anti-βIII tubulin (TuJ1, abcam, ab18207), Rabbit anti-cFos (Millipore, Ab5, 4-17), Mouse anti-cFOS (Millipore Ab5 4-17, IF 1:500), Mouse anti-Jun (BD transduction Laboratories, IF 1:1000), Rabbit TRPV1 (Alomone ACC-030, 1:500), Rabbit anti-GFP (abcam, ab6556, IF & WB1:500), Goat anti-CGRP (AbD SEROTEC, 1720-9007), MBP (Abcam ab7349, IF 1:500) or Rabbit anti-importin α3 (1:2000) antibodies. On the following day, sections were washed three times in PBS prior to incubation for 2 hours with different combinations of donkey anti-chicken/rabbit/mouse secondary antibodies (Alexa Fluor 647, 594, 488; Jackson Immunoresearch, 1:1000). Following, coverslips or slides were washed and mounted with Flouromount-G™.
Image processing—Images were acquired on a confocal laser-scanning microscope (Olympus FV1000, 60× oil-immersion objective Olympus UPLSAPO-NA 1.35) using Fluoview (FV10-ASW 4.1) software. DRG sections were scanned using camera settings identical for all genotypes in a given experiment. Images were imported into the Fiji version (www(dot)//fiji(dot)sc) of ImageJ for threshold subtraction and subsequent analyses as detailed below.
Fluorescence Intensity Analysis: Line scan analysis of fluorescence intensity was carried out on high-resolution confocal z-stack from DRG sections to determine fluorescence intensity of c-FOS and importin α3 over cell regions of interest in-vivo. Briefly, the measurement (in pixels) was effected using the ImageJ drawing tool to draw a line across a neuronal segment covering both cytoplasm and nucleus. All collected traces were then averaged for each experimental group. For comparison of nuclear and cytoplasmic staining intensity 8-bit images of either DRG sections or DRG cultured neurons were processed using the Fiji software. The integrated density was calculated as the sum of the values of the pixels in both cytoplasmic and nuclear regions of interest determined on the basis of TuJ-1, CGRP, TRPV1 or DAPI staining, respectively.
Neuronal cultures—Adult mouse DRG neurons were cultured as previously described [Perry et al. Neuron 75, 294 (2012)], with plating on poly-L-lysine and laminin coated plates or glass cover slips for 24 hours. Where required, L3-L5 DRG neurons from the uninjured side served as controls for cultures from SNI mice.

[4] = target: T1, importin α3 (endogenous, mouse DRG …); assay: proximity ligation assay of endogenous proteins in cultured DRG sensory neurons
Experimental: Proximity Ligation Assay (PLA) in DRG cultures—The Proximity Ligation Assay (PLA) is used to detect spatial proximity within ˜40 nm of two proteins of interest [O. Söderberg et al., Nature Methods 3, 995-1000 (2006)]. DRG neurons were cultured for 24 hours and fixed for 20 minutes in 4% PFA before blocking and permeabilization with 5% Donkey Serum, 1% BSA, 0. 1% Triton X-100 in PBS for 1 hour. They were then incubated with anti-c-Fos (mouse monocolonal 1:1000, Abcam ab208942) and anti-importin α3 (rabbit polyclonal, 1:2000, Michael Bader lab′, MDC Berlin) overnight at 4° C. PLA was performed using Duolink (Sigma: PLA probe anti-mouse minus DU092004, anti-rabbit plus DU092002 with detection using Far-Red DU092013), according to the manufacturer's instructions. Identification of PLA signal within neurons was effected by subsequent immunostaining with goat anti-CGRP (AbD SEROTEC 1720-9007, IF 1:1000) for 60 minutes at room temperature, followed by three washes and an additional 60 minutes incubation with donkey anti-goat Alexa Fluor 488 (Jackson Immunoresearch, 1:1000). Cells were then washed, mounted with Flouromount-G (ThermoFisher Scientific, cat. #00-4958-02) and imaged by confocal microscopy (Olympus FV1000, 60× oil-immersion objective Olympus UPLSAPO-NA 1.35). PLA signals were quantified by counting puncta in ImageJ. […]

Molecule | responsiveness to noxious heat (mice) | paw withdrawal threshold (PWT) by the Von Frey test (SNI mice [1]) | relief in the SNI model of neuropathic pain (SNI mice [1]) | mechanosensitivity, paw withdrawal threshold by Von Frey test, dose dependence (SNI mice [1]) | mechanosensitivity, Von Frey tests, time dependence (SNI mice [1]) | response of SNI injured animals to a noxious mechanical stimulus (SNI mice [2]) | c-Fos nuclear accumulation [3] | c-Fos nuclear localization [3] | also measured
COc1cc([S+](C)[O-])ccc1-c1nc2ncccc2[nH]1 (stereo not shown) [sulmazole, 2-(2-Methoxy-4-[methylsulfinyl]phenyl)-1H-imidazo(4,5-b)pyridine] | showed efficacy in the assay | significant effects | time and dose-dependent relief | dose dependent effects | time dependent effects | provided relief in this assay that was comparable to that provided by knockout or knockdown of importin α3 | neither drug had any further effect | significantly reduced c-Fos nuclear accumulation | c-Fos nuclear localization ([3]; listed as Sulmazole): Significant reductions in c-Fos nuclear localization
O=C(O)CCc1cc(C(=O)c2ccc(OC3CCCC3)cc2O)ccc1OCc1ccc2c(=O)[nH]oc2c1 [T-5224] | – | – | – | – | – | – | – | – | response to noxious heat (mice; WT (+/+) mice, 20 mg/kg, i.p. (FIGS. 6J-K)): reduced the response to noxious heat; response to noxious heat (mice; importin α3 null (−/−) mice, 20 mg/kg, i.p. (FIGS. 6J-K)): no additional effect beyond the already existing attenuation; paw withdrawal threshold (PWT) in response to noxious heat (mice; wild-type mice, i.p. at the indicated doses, over eight days post-treatment (FIGS. 7A-B)): reduced paw withdrawal in response to noxious heat; also recorded: most marked effect was observed one day following injection of a dose of 10 mg/kg; paw withdrawal in Von Frey tests (SNI mice [1]; wild type animals one week following induction of SNI, 10 mg/kg (FIG. 18)): did ameliorate the paw withdrawal latency
Cc1nnc(NS(=O)(=O)c2ccc(N)cc2)s1 [sulfamethizole, 4-Amino-N-(5-methyl-1,3,4-thiadiazol-2-yl)benzenesulfonamide] | showed efficacy in the assay | significant effects | time and dose-dependent relief | dose dependent effects | time dependent effects | provided relief in this assay that was comparable to that provided by knockout or knockdown of importin α3 | neither drug had any further effect | significantly reduced c-Fos nuclear accumulation | c-Fos nuclear localization ([3]; listed as Sulfamethizole): Significant reductions in c-Fos nuclear localization
NCC1(CC(=O)O)CCCCC1 [gabapentin] | – | – | – | – | – | – | – | – | paw withdrawal threshold (PWT) in Von Frey tests (SNI mice [1]; SNI mice, 100 mg/kg intraperitoneal two months following establishment of the model, again one week later (FIG. 2D)): significant amelioration of the phenotype
B1 | – | – | – | – | – | – | – | – | binding result [4]: binds
B2 | – | – | – | – | – | – | – | – | response to noxious heat (mice; wild type mice after intrathecal injection of AAV9 construct, vs control construct): reduced noxious heat responses
